Measured values published in patent US4613695A, “N-nitroso compounds and compositions containing such compounds” (Aktiebolaget Leo, priority 1982, dated 1986).
Read-outs that look alike come from different tables or passages of the source.

Tests used:
[1] = cited from earlier work
[2] = system: Walker carcinosarcoma 256; experiment: Walker carcinosarcoma 256 tumour growth inhibition (single p.o. dose); type: in vivo, Female Sprague Dawley rats; conditions: for ED50: Rattus norvegicus, dose that causes a 50 percent reduction of tumour size, p.o. once, read-out: ED50
From the text: (§1) A therapeutic index is an indication of the therapeutic usefulness of a compound, and such an index may be defined in various ways. One type of therapeutic index commonly used is the ratio LD50/ED50, wherein LD50 is the dose that causes a 50 percent lethality, and ED50 is the dose that causes a 50 percent reduction of tumour size. Another type of therapeutic index, useful in evaluation of increasing survival time, is the ratio between maximum and minimum effective dose. Both these types of therapeutic indexes are used and given in the experimental results below.
(§2) The manner of administration of the compounds is by the oral (p. o.) route in each case.
(§3) Experimental animals: Female Sprague Dawley rats
(§4) Tumour implants: Tumour pieces with 2-3 mm diameter, implanted subcutaneously
(§5) Therapy: The compound is administered p. o. once on the day after the implantation
Termination: The animals are killed on the 9th day after implantation
(§6) Evaluation: Weight of tumour is determined in test animals and compared with those of control animals. For each compound the LD50 and ED50 dose (as defined above) are determined. The therapeutic index, T. I., (LD50/ED50) is calculated.

in vivo = conditions: rat, po
From the text: as §1, §2, §3, §4, §5, §6

Lymphatic leukemia L1210 = Lymphatic leukemia L1210 survival test (survival time increase, long term survival, cure potential); type: in vivo, Female BDF1 mice; conditions: for minimal effective dose: Mus musculus, L1210, po; for minimal effective dose / Maximum effective dose (survival time increase) / Dose or dose range for cure: p.o. once; for T.I.s (long term survival; max.effect.dose/min.effect.dose): long term survival T·100/To >20%; for T.I.s = max.effect.dose/min.effect.dose: survival time increase, t·100/c ≥125%; for Dose or dose range for cure: ≥90% long term survivors on day 60
Protocol: The experimental design and interpretation of the results are in accordance with the standards set by the CCNSC (see reference (16)) and by the DR&D (see reference (17)).
Experimental animals: Female BDF1 mice
Tumour implants: 10^5 tumour cells implanted intraperitoneally (i. p.)
Therapy: The compounds were administered p. o. once on the day following the implantation.
Termination: The animals were killed on the 60th day after the implantation. Living animals on the 60th day are termed long term survivors.
(a) Evaluation of therapeutic dose range for survival time increase: Survival times at various dose levels are determined, and the survival time of the test animals (t) is expressed as the percentage of that of the control animals (c):
The maximum effective dose and the minimum effective dose required to achieve t·100/c≥125% are determined, and a therapeutic index as defined below is calculated:
T. I.s =max.effect.dose/min.effect.dose.
(b) Evaluation of therapeutic dose range for long term survival: Long time survival is determined at various dose levels and is expressed as surviving test animals on day 60 (T) as the percentage of that of the total number of test animals (To):
The maximum effective dose and the minimum effective dose to achieve long term survival T·100/To >20% are determined and a therapeutic index, T. I.1 s is calculated:
T. I.1s =max.effect.dose/min.effect.dose.
(c) Evaluation of cure potential: The normal survival time for test animals receiving no therapeutic treatment is 9-11 days. Surviving test animals on the 60th day after implantation showing no sign of tumour presence are regarded as cured animals. Long term survival is determined as under (b) above, and the effective dose or dose range to achieve a long term survival T·100/To ≥90% is determined as an evaluation of the cure potential.

[3] = 1440 h, >20% long term survivors on day 60, read-out: Minimum effective dose (long term survival)
[4] = median survival time percent of control ≥ 125%, read-out: Minimum effective dose (survival time increase)
[5] = median survival time percent of control ≥ 125%
[6] = therapeutic index LD50/ED50, p.o.

SMILES | other types of toxicities ([1]; references (6, 7)) | bone marrow toxicity ([1]; under clinical evaluation, reference (5)) | ED50 ([2]; po) [mg/kg] | T.I. LD50/ED50 ([2]; rat, in vivo, po) | LD50 (in vivo) [mg/kg] | minimal effective dose (Lymphatic leukemia L1210; [3]) [mg/kg] | minimal effective dose (Lymphatic leukemia L1210; [4]) [mg/kg] | T.I.s (long term survival; max.effect.dose/min.effect.dose) (Lymphatic leukemia L1210) | Maximum effective dose (survival time increase) (Lymphatic leukemia L1210; [5]) [mg/kg] | T.I.s = max.effect.dose/min.effect.dose (Lymphatic leukemia L1210) | Dose or dose range for cure (Lymphatic leukemia L1210) [mg/kg] | T.I. LD50/ED50 [2, 6]
O=NN(CCCl)C(=O)N[C@H]1C(O)O[C@H](CO)[C@@H](O)[C@@H]1O (stereo partly drawn) [Chlorozotocin, 2-/3-(2-chloroethyl)-3-nitrosoureido/-D-glucopyranose] | still evident, e.g. liver and lung toxicity | decreased bone marrow toxicity | – | – | – | – | – | – | – | – | – | –
CN(CCO)S(=O)(=O)CCNC(=O)N(CCCl)N=O [1:15, 1-(2-chloroethyl)-3-(2-/N-2-hydroxyethyl-N-methyl-aminosulfonyl/ethyl)-1-nitrosourea] | – | – | 0.6 | 150 | 90 | 31 | 16 | 4 | 125 | 8 | 63 | –
O=NN(CCCl)C(=O)NCCS(=O)(=O)N1CCCCC1 [1:4, 1-(2-chloroethyl)-1-nitroso-3-(2-/1-piperidinosulfonyl/ethyl)-urea] | – | – | 1 | – | 125 | 31 | 8 | 4 | 125 | 16 | 125 | 125
CN(C)S(=O)(=O)CCNC(=O)N(CCCl)N=O [1:1, 1-(2-chloroethyl)-3-/2-(dimethylaminosulfonyl)ethyl/-1-nitrosourea] | – | – | 0.25 | – | 50 | 31 | 8 | 2 | 63 | 8 | 31 to 63 | 200
NS(=O)(=O)CCNC(=O)N(CCCl)N=O [1:3, 3-(2-/aminosulfonyl/ethyl)-1-(2-chloroethyl)-1-nitrosourea] | – | – | 0.2 | – | 40 | 16 | – | 2 | – | – | – | 200
CN(C)S(=O)(=O)CCCCCNC(=O)N(CCCl)N=O [1:19, 1-(2-chloroethyl)-3-(5-/dimethylaminosulfonyl/pentyl)-1-nitrosourea] | – | – | 1 | – | 250 | 63 | – | 2 | – | – | 125 | 250
O=NN(CCCl)C(=O)NCCS(=O)(=O)NCc1ccccc1 [1:7, 3-(2-/benzylaminosulfonyl/ethyl)-1-(2-chloroethyl)-1-nitrosourea] | – | – | 2 | – | 250 | 125 | – | 2 | – | – | – | 125
CCCN(CCC)S(=O)(=O)CCNC(=O)N(CCCl)N=O [1:6, 1-(2-chloroethyl)-3-(2-/dipropylaminosulfonyl/ethyl)-1-nitrosourea] | – | – | 2 | – | 250 | – | 31 | – | 250 | 8 | 125 | 125
CCN(CC)S(=O)(=O)CCNC(=O)N(CCCl)N=O [1:2, 1-(2-chloroethyl)-3-(2-/diethylaminosulfonyl/ethyl)-1-nitrosourea] | – | – | 0.4 | – | 60 | 63 | 16 | 2 | 125 | 8 | – | 150
CN(C)S(=O)(=O)CCCCNC(=O)N(CCCl)N=O [1:24, 1-(2-chloroethyl)-3-(4-/dimethylaminosulfonyl/butyl)-1-nitrosourea] | – | – | 2 | 125 | 250 | 63 | 31 | 4 | 250 | 8 | 125 | –
